Patent US9511052B2, “Mineralocorticoid receptor antagonists” (Merck Sharp & Dohme Corp., priority 2012, dated 2016)

What was measured:
[1] = Metabolic stability in liver microsome and hepatocytes of multiple animal species (overall statement); format: in vitro ADME
[2] = biological target: T1, full-length human Mineralocorticoid Receptor (MR) (Homo sapiens, UniProt P08235); test: human MR NH Pro assay (PathHunter Protein:Protein interaction assay), MR antagonism; format: cell-based; conditions: IP = inflection point of the dose-response curve; CHO-K1 cells overexpressing human MR, aldosterone about 0.3 nM to about 1 nM, 6 hours at 37° C.
T1 construct: host or cells: PathHunter CHO-K1 MR cells
T1 sequence (P08235 1-984): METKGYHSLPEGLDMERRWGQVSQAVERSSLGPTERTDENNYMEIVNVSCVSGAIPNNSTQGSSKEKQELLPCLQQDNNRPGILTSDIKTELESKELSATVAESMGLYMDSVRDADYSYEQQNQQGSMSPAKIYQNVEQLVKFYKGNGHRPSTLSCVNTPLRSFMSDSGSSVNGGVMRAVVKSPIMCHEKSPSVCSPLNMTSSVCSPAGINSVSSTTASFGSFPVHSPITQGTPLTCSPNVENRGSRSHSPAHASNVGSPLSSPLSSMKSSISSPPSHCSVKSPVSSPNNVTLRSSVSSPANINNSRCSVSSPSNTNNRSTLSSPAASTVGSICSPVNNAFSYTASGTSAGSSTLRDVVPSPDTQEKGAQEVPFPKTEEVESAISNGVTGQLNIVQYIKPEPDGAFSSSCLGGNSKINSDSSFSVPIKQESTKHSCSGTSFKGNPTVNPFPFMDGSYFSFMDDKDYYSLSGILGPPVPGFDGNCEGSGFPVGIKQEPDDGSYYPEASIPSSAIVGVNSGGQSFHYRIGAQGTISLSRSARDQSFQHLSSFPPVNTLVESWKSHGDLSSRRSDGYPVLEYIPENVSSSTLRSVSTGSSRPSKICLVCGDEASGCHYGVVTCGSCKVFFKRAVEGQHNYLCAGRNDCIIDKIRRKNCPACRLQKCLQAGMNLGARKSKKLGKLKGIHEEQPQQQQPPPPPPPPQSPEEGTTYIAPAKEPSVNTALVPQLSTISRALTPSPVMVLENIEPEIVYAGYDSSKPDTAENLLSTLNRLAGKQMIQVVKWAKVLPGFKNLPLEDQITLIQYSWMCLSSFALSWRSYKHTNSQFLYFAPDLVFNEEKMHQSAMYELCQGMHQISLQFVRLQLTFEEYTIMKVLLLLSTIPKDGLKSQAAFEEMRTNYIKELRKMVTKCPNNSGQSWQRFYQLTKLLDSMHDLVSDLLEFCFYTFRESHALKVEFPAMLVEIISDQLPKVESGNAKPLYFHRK
Text: The activity of the compounds of the present invention regarding mineralocorticoid receptor antagonism can be evaluated using the following assay.
Assessment of MR Potency in HMR NH Pro Assay
The human MR NH Pro assay is a commercially available PathHunter™ Protein:Protein interaction assay (DiscoveRx; http://www.discoverx.com/nhrs/prod-nhrs.php) that measures the ability of compounds to antagonize full-length human Mineralocorticoid Receptor (MR) binding to a coactivator peptide.
Stock solution was prepared at 10 μM in DMSO and stored at −20° C. for assay, dilute in assay media to 1.8 or 6 nM (6× of final concentration=about 0.3 nM to about 1.0 nM)
5. Cell line: PathHunter CHO-K1 MR cells Cat #93-0456C2, Lot No: 09B0913, from operation liquid nitrogen stock.
6. Control Antagonist: Spironolactone: Sigma #S-3378 and Eplerenone Sigma #107724-20-9 (10 mM stock concentration also prepared in DMSO and stored at −20° C.).
1. Cells are grown in F12+FBS+Hygromycin+pen/strep+Genetin
2. Cells are collected with 0.05% trypsin and the cell suspension is spun and resuspended in a volume of F12+1.5% CD-FBS and counted.
3. The cells concentration was adjusted to 4×10^5 cells/mL.
4. Cells were (25 μL/well) added to the wells of a 384 well plate.
5. The plate was then incubated at 37° C. over night in a humidified incubator with 5% CO2.
6. Test compounds were titrated starting at 4.4 mM, 10-point titration in 1:3 dilution.
Protocol for 384 well plate format: 6 hr treatment:
1. 10K exponentially growing cells/well (25 μL) were resuspended in assay media and plated into each well using the Multidrop (Thermo Electron) (use white wall, clear bottom assay plates (Costar #3570) and incubated overnight at 37° C., 5% CO2.
2. 0.25 μL 120× test compound (final DMSO concentration should be <1%) was added to each well n=2, 10 point titrations starting at 36.7 μM final concentration.
4. 5 μL of assay media was added to all wells in column 23 and 24.
5. Cells were then incubated for 6 hrs at 37° C., 5% CO2.
6. 15 μL 3× DiscoveRx detection reagent was then added to each well.
7. Plates were incubated for 1 hour at room temperature in the dark.
8. Plates were read on Envision (PerkinElmer) luminesence plate reader and analyzed using ADA.

PK profile in rats = format: in vivo, rat; conditions: for clearance / half-life / bioavailability: rat, in vivo; for bioavailability: oral
[3] = Hepatocyte stability, dog; format: in vitro ADME; conditions: hepatocytes, read-out: Hepatocyte Stability (t1/2)
[4] = Hepatocyte stability, rhesus monkey; format: in vitro ADME; conditions: hepatocytes, read-out: Hepatocyte Stability (t1/2)
[5] = Liver microsome stability, human; format: in vitro ADME; conditions: for Liver Microsome Stability (t1/2): Human; for half-life: human, liver microsomes, read-out: Liver Microsome Stability (t1/2)
[6] = Liver microsome stability, rat; format: in vitro ADME; conditions: liver microsomes, read-out: Liver Microsome Stability (t1/2)
[7] = Hepatocyte stability, rat; format: in vitro ADME; conditions: hepatocytes, read-out: Hepatocyte Stability (t1/2)
[8] = Liver microsome stability, rhesus monkey; format: in vitro ADME; conditions: liver microsomes, read-out: Liver Microsome Stability (t1/2)
[9] = Liver microsome stability, dog; format: in vitro ADME; conditions: liver microsomes, read-out: Liver Microsome Stability (t1/2)
[10] = Hepatocyte stability, human; format: in vitro ADME; conditions: for half-life: human, hepatocytes, read-out: Hepatocyte Stability (t1/2)

SMILES	metabolic stability in liver microsome and hepatocytes of multiple animal species (in words) [1]	IC50 [2] [nM]	PK profile in rats (in words) (PK profile in rats)	AUCN po (PK profile in rats) [µM·kg·h/mg]	clearance (PK profile in rats) [mL/min/kg]	half-life (PK profile in rats) [h]	bioavailability (PK profile in rats) [%]	half-life [3] [h]	half-life [4] [h]	Liver Microsome Stability (t1/2) [5] [h]	half-life [6] [h]	half-life [7] [h]	half-life [8] [h]	half-life [9] [h]	Hepatocyte Stability (t1/2) ([10]; Human) [h]	Cl (PK profile in rats) [mL/min/kg]	t1/2 (PK profile in rats) [h]	half-life [10] [h]	half-life [5] [h]
CC(O)C(CC(F)F)(c1ccc(C(F)(F)F)cc1)n1ncc2c(NS(C)(=O)=O)cccc21 (single isomer, unassigned) [Compound 35, N-(1-(1,1-difluoro-4-hydroxy-3-(4-(trifluoromethyl)phenyl)pentan-3-yl)-1H-indazol-4-yl)methanesulfonamide]	good metabolic stability	50	good PK profile	2.7	14	7	98	–	–	–	–	–	–	–	–	–	–	–	–
CCC(c1ccc(Br)cc1)(C(C)O)n1ncc2c(NS(C)(=O)=O)cccc21 (single isomer, unassigned) [Compound 2, N-(1-(3-(4-bromophenyl)-2-hydroxypentan-3-yl)-1H-indazol-4-yl) methanesulfonamide]	good metabolic stability	7	good PK profile	1.0	18	3.6	49	0.75	0.933	0.8	0.883	> 1.5	0.383	1.12	1.15	–	–	–	–
CCC(O)C(CC)(c1ccc(C(F)(F)F)cc1)n1ncc2c(NS(C)(=O)=O)cccc21 (single isomer, unassigned) [Compound 9, N-(1-(4-hydroxy-3-(4-(trifluoromethyl)phenyl)hexan-3-yl)-1H-indazol-4-yl)methanesulfonamide]	good metabolic stability	4	good PK profile	1.3	–	–	76	0.8	> 1.5	1.2	1.02	> 1.5	1.02	1.08	–	24	5.3	> 1.5	–
CCC(c1ccc(C(F)(F)F)cc1)(C(C)O)n1ncc2c(NS(C)(=O)=O)cc(F)cc21 (single isomer, unassigned) [Compound 31, N-(6-fluoro-1-(2-hydroxy-3-(4-(trifluoromethyl)phenyl)pentan-3-yl)-1H-indazol-4-yl)methanesulfonamide]	excellent metabolic stability	51	good PK profile	4.0	8.4	5.2	92	1.22	> 1.5	–	3.9	> 1.5	1.12	2.13	–	–	–	1.5	2.6
CS(=O)(=O)Nc1cccc2c1cnn2C(CC(F)F)(C(N)=O)c1ccc(C(F)(F)F)cc1 (single isomer, unassigned) [Compound 46, 4,4-difluoro-2-(4-(methylsulfonamido)-1H-indazol-1-yl)-2-(4-(trifluoromethyl)phenyl)butanamide]	good metabolic stability	76	good PK profile	1.9	6.2	4.2	31	> 1.5	> 1.5	–	1.62	> 1.5	1.53	2.25	–	–	–	> 1.5	2.3
CCC(c1ccc(C#N)cc1)(C(C)O)n1ncc2c(NS(C)(=O)=O)cccc21 (single isomer, unassigned) [Compound 13, N-(1-(-3-(4-cyanophenyl)-2-hydroxypentan-3-yl)-1H-indazol-4-yl)methanesulfonamide]	–	225	–	–	–	–	–	–	–	–	–	–	–	–	–	–	–	–	–
CCC(O)C(CC)(c1ccc(C#N)cc1)n1ncc2c(NS(C)(=O)=O)cc(F)cc21 (single isomer, unassigned) [Compound 20, N-(1-(3-(4-cyanophenyl)-4-hydroxyhexan-3-yl)-6-fluoro-1H-indazol-4-yl)methanesulfonamide]	–	138	–	–	–	–	–	–	–	–	–	–	–	–	–	–	–	–	–
CCC(O)C(CC)(c1ccc(Br)cc1)n1ncc2c(NS(C)(=O)=O)cccc21 (single isomer, unassigned) [Compound 7, N-(1-(3-(4-bromophenyl)-4-hydroxyhexan-3-yl)-1H-indazol-4-yl)methanesulfonamide]	–	1990	–	–	–	–	–	–	–	–	–	–	–	–	–	–	–	–	–
CCC(O)C(CC)(c1ccc(C(F)(F)F)cc1)n1ncc2c(NS(C)(=O)=O)cccc21 (single isomer, unassigned) [Compound 10, N-(1-(4-hydroxy-3-(4-(trifluoromethyl)phenyl)hexan-3-yl)-1H-indazol-4-yl)methanesulfonamide]	–	5	–	–	–	–	–	–	–	–	–	–	–	–	–	–	–	–	–
CC(O)C(CC(F)F)(c1ccc(C(F)(F)F)cc1)n1ncc2c(NS(C)(=O)=O)cccc21 (single isomer, unassigned) [Compound 37, N-(1-(1,1-difluoro-4-hydroxy-3-(4-(trifluoromethyl)phenyl)pentan-3-yl)-1H-indazol-4-yl)methanesulfonamide]	–	66	–	–	–	–	–	1.32	> 1.5	–	2.03	> 1.5	2.05	0.967	–	–	–	> 1.5	1.43
